{
  "source": "patent US11884647B2",
  "about": "“Compounds and methods for targeting pathogenic blood vessels” (THE REGENTS OF THE UNIVERSITY OF CALIFORNIA, priority 2019, dated 2024)",
  "data": [
    {"tested_on": "tumor endothelial cells (LL/2 lung cancer tumor)", "assay": "Lung LL2 ex vivo model of tumor angiogenesis", "format": "cell-based, mouse", "conditions": "Lung LL2 ex vivo; Conc. 20 μm; 48 hrs", "protocol": "(§1) This example describes a procedure to prepare a primary tumor angiogenesis model for assessing the efficacy of anti-cancer candidate agents.\n(§2) 1. The day before the experiment, spray all necessary tools with 70% ethanol and sterilize them under UV light overnight, including blade, dissecting and micro-dissecting scissors and […]. Place 24-well dishes at 4° C. to pre-chill plates and thaw Matrigel 24 hours before tumor dissection.\n(§3) 2. Spray 70% ethanol on working bench. Prepare two sterile petri dishes with 10 mL sterile PBS. Steps 3 and 4 are for mouse tumor models. For fresh human tumor, directly go to step 5.\n(§4) 3. Euthanize the tumor-bearing mice. Spray 70% ethanol on the mouse and remove the tumor using sterilized dissecting tools (avoid the fur). Rinse the tumor in petri dish with sterile PBS to remove ethanol and fur. Transfer the tumor to a new petri dish with PBS for dissection. Place the dish on ice.\n(§5) 4. Using pre-chilled sterile pipet tips to seed regular Matrigel in 24 well plates on ice. Matrigel (30 μL) is dropped in the middle of each well without touching the edge of the well (avoid introducing bubbles if possible).\n(§6) 5. Cut the tumor in halves using the sterile blade. Identify and isolate healthy tumor tissue that is not necrotic and is within the tumor capsule. Cut the healthy tumor tissue into small pieces. For instance, a suitable size for the tumor tissue is 0.5 mm (H)×0.5 mm (L)×0.3 mm (D) with a total volume of 0.075 mm^3.\n(§7) 6. Gently transfer and embed each tumor piece in the Matrigel drop in the 24-well plate. Place the embedded piece in the bottom and middle of each Matrigel drop. Keep the plate on ice all the time.\n(§8) 7. After seeding the tumor pieces, plates are incubated in a 37° C. cell culture incubator without medium for 10 minutes in order for the Matrigel to solidify.\n(§9) 8. Endothelial Growth Medium (0.5 mL) is added to each well and incubated at 37° C. with 5% CO2. Wait until the new endothelial cells have grown out of the tumor or are larger than 3 mm in diameter until treatment. This usually takes 4 days for the LL2 Lewis lung cancer model and 7 days for the CT26 colon cancer model. For human tumor models, the growth time is typically 2-3 weeks, depending on the tumor type. Media is changed every 4 days during prolonged culture. Typically, when the tumor tissue grows to 2 mm in diameter, it is good for drug testing. A size of about 3 mm in diameter can make visualization easier.\n(§10) 9. When the assay is ready to be analyzed for cell death (e.g., 48 hours after drug addition), prepare the dye mixture by mixing 6 μL of green dye to stain live cells (5 mg/mL Fluorescein diacetate or FDA in DMSO) with 30 μL of red dye (2.5 mg/mL Propidium iodide or PI in PBS) to stain dead cells in an Eppendorf tube. The FDA dye needs to be stored frozen in a −20° C. freezer because it has a labile ester bond.\n(§11) 10. Add 1 μL of the dye mixture to each well of the 24-well dish. It is usually performed one 24-well dish at a time given the amount of time needed to take pictures (the green dye is not as stable in the cells in the long term).\n(§12) 11. Gently rock the dish a few times to mix the dye with the media in the wells and incubate the dish at 37° C. for 10 min (too long incubation can make the green signal too intense).\n(§13) 12. Wash each well with 0.5 mL of sterile PBS and then add 0.5 mL of phenol red free SFM to each well. Alternatively 0.5 mL of regular Endothelial Cell Growth Media can be added to each well if this well needs to be continuously maintained after the experiment.\n(§14) 13. Look through all wells on an inverted microscope using the 2× objective lens to observe morphological changes.\n(§15) 14. Taking pictures in the red and green channels would allow not only the recording of the result but also more accurate quantitation of the result. To take pictures for all the wells, first pick a well that has robust red and green signals. […]", "values": [
      {"compound": "3-((4-(heptyloxy)phenyl)sulfonyl)-4-(4- (4-(2-mPEGoxyethyl)piperazin-1- yl)piperidin-1-yl)-6- (methylsulfinyl)quinoline [compound 280]", "48 hrs (morphology observations after 48 hours)": "*** (100% of endothelial cells vesicularize in cell shape)"}
    ]},
    {"tested_on": "tumor endothelial cells (LL/2 lung cancer tumor)", "assay": "Lung LL2 ex vivo model of tumor angiogenesis", "format": "cell-based, mouse", "conditions": "Lung LL2 ex vivo; Conc. 20 μm; drug treatment two days", "protocol": "as §1, §2, §3, §4, §5, §6, §7, §8, §9, §10, §11, §12, §13, §14, §15", "units": {"Cell death": "%"}, "values": [
      {"compound": "CCc1ccc(S(=O)(=O)c2cnc3ccc(OC(F)(F)F)cc3c2-n2cnnn2)cc1", "note": "[compound 125, 3-((4-ethylphenyl)sulfonyl)-4-(1H-tetrazol-1-yl)-6-(trifluoromethoxy)quinoline]", "Cell death": 10},
      {"compound": "3-((4-(heptyloxy)phenyl)sulfonyl)-4-(4- (4-(2-mPEGoxyethyl)piperazin-1- yl)piperidin-1-yl)-6- (methylsulfinyl)quinoline [compound 280]", "Cell death": 100}
    ]},
    {"tested_on": "tumor endothelial cells (LL/2 lung cancer tumor)", "assay": "Lung LL2 ex vivo model of tumor angiogenesis", "format": "cell-based, mouse", "conditions": "Lung LL2 ex vivo; Conc. 40 μm; drug treatment two days", "protocol": "as §1, §2, §3, §4, §5, §6, §7, §8, §9, §10, §11, §12, §13, §14, §15", "units": {"Cell death": "%"}, "values": [
      {"compound": "CCCCOc1ccc(S(=O)(=O)c2cnc3ccc(SC)cc3c2N2CCCN(C3CCSCC3)CC2)cc1", "note": "[compound 358, 3-((4-butoxyphenyl)sulfonyl)-6-(methylthio)-4-(4-(tetrahydro-2H-thiopyran-4-yl)-1,4-diazepan-1-yl)quinoline]", "Cell death": 0},
      {"compound": "CCCCOc1ccc(S(=O)(=O)c2cnc3ccc(SC)cc3c2N2CCC(N3CCN(CCO)CC3)CC2)cc1", "note": "[compound 230, 2-(4-(1-(3-((4-butoxyphenyl)sulfonyl)-6-(methylthio)quinolin-4-yl)piperidin-4-yl)piperazin-1-yl)ethan-1-ol]", "Cell death": 100}
    ]},
    {"tested_on": "tumor endothelial cells (LL/2 lung cancer tumor)", "assay": "Lung LL2 ex vivo model of tumor angiogenesis", "format": "cell-based, mouse", "conditions": "Mus musculus, Endothelial cell, 48 h, read-out: Cell death", "protocol": "as §1, §2, §3, §4, §5, §6, §7, §8, §9, §10, §11, §12, §13, §14, §15", "units": {"cytotoxicity at 40 µM": "%", "cytotoxicity at 20 µM": "%", "cytotoxicity at 10 µM": "%"}, "values": [
      {"compound": "CCCCOc1ccc(S(=O)(=O)c2cnc3ccc(C(=O)OCC)cc3c2N2CCC(N3CCN(C)CC3)CC2)cc1", "note": "[compound 172, ethyl 3-((4-butoxyphenyl)sulfonyl)-4-(4-(4-methylpiperazin-1-yl)piperidin-1-yl)quinoline-6-carboxylate]", "cytotoxicity at 40 µM": 100},
      {"compound": "CCCCOc1ccc(S(=O)(=O)c2cnc3ccc(OC(F)(F)F)cc3c2N2CCSCC2)cc1", "note": "[compound 187, 4-(3-((4-butoxyphenyl)sulfonyl)-6-(trifluoromethoxy)quinolin-4-yl)thiomorpholine]", "cytotoxicity at 40 µM": 30},
      {"compound": "CCc1ccc(S(=O)(=O)c2cnc3ccc(OC(F)(F)F)cc3c2NN2CCCCC2)cc1", "note": "[compound 105, 3-((4-ethylphenyl)sulfonyl)-N-(piperidin-1-yl)-6-(trifluoromethoxy)quinolin-4-amine]", "cytotoxicity at 20 µM": 0},
      {"compound": "CCCCOc1ccc(S(=O)(=O)c2cnc3ccc(SC)cc3c2N2CCC(N3CCC(N4CCCCC4)CC3)CC2)cc1", "note": "[compound 231, 4-([1,4′:1′,4″-terpiperidin]-1″-yl)-3-((4-butoxyphenyl)sulfonyl)-6-(methylthio)quinoline]", "cytotoxicity at 40 µM": 100},
      {"compound": "CCCCOc1ccc(S(=O)(=O)c2cnc3ccc(C(=O)OCC)cc3c2-n2cnnn2)cc1", "note": "[compound 186, ethyl 3-((4-butoxyphenyl)sulfonyl)-4-(1H-tetrazol-1-yl)quinoline-6-carboxylate]", "cytotoxicity at 10 µM": 90},
      {"compound": "CCCCCCCOc1ccc(S(=O)(=O)c2cnc3ccc([S+](C)[O-])cc3c2N2CCN(CCN3CCCC3)CC2)cc1", "note": "(centres unmarked) [compound 276, 3-((4-(heptyloxy)phenyl)sulfonyl)-6-(methylsulfinyl)-4-(4-(2-(pyrrolidin-1-yl)ethyl)piperazin-1-yl)quinoline]", "cytotoxicity at 20 µM": 100},
      {"compound": "CCOC(=O)c1ccc(N2CCN(c3c(S(=O)(=O)c4ccc(OC)cc4)cnc4cc(OC)c(OC)cc34)CC2)cc1", "note": "[compound 317, ethyl 4-(4-(6,7-dimethoxy-3-((4-methoxyphenyl)sulfonyl)quinolin-4-yl)piperazin-1-yl)benzoate]", "cytotoxicity at 40 µM": 30},
      {"compound": "CCCCOc1ccc(S(=O)(=O)c2cnc3ccc([S+](C)[O-])cc3c2N2CCC(N3CCN(c4ccc(F)cc4)CC3)CC2)cc1", "note": "(centres unmarked) [compound 239, 3-((4-butoxyphenyl)sulfonyl)-4-(4-(4-(4-fluorophenyl)piperazin-1-yl)piperidin-1-yl)-6-(methylsulfinyl)quinoline]", "cytotoxicity at 40 µM": 40},
      {"compound": "CC(C)CCCC(C)CCOc1ccc(S(=O)(=O)c2cnc3ccc([S+](C)[O-])cc3c2N2CCC(N3CCC(N4CCCCC4)CC3)CC2)cc1", "note": "(centres unmarked) [compound 289, 4-([1,4′:1′,4″-terpiperidin]-1″-yl)-3-((4-((3,7-dimethyloctyl)oxy)phenyl)sulfonyl)-6-(methylsulfinyl)quinoline]", "cytotoxicity at 20 µM": 20},
      {"compound": "CCCCOc1ccc(S(=O)(=O)c2cnc3ccc(C(=O)OCC)cc3c2N2CCC(N3CCCCCC3)CC2)cc1", "note": "[compound 176, ethyl 4-(4-(azepan-1-yl)piperidin-1-yl)-3-((4-butoxyphenyl)sulfonyl)quinoline-6-carboxylate]", "cytotoxicity at 40 µM": 100},
      {"compound": "COc1ccc(S(=O)(=O)c2cnc3ccc(OC(F)(F)F)cc3c2NCCO)cc1OC", "note": "[compound 73, 2-((3-((3,4-dimethoxyphenyl)sulfonyl)-6-(trifluoromethoxy)quinolin-4-yl)amino)ethan-1-ol]", "cytotoxicity at 40 µM": 10},
      {"compound": "COc1ccc(S(=O)(=O)c2cnc3ccc(C(=O)N(C)C)cc3c2N2CCC(N3CCCC3=O)CC2)cc1", "note": "[compound 332, 3-((4-methoxyphenyl)sulfonyl)-N,N-dimethyl-4-(4-(2-oxopyrrolidin-1-yl)piperidin-1-yl)quinoline-6-carboxamid]", "cytotoxicity at 40 µM": 0},
      {"compound": "CNC(=O)c1ccc2ncc(S(=O)(=O)c3ccc(OC)cc3)c(N3CCC(N4CCCC4CO)CC3)c2c1", "note": "(centres unmarked) [compound 336, 4-(4-(2-(hydroxymethyl)pyrrolidin-1-yl)piperidin-1-yl)-3-((4-methoxyphenyl)sulfonyl)-N-methylquinoline-6-carboxamide]", "cytotoxicity at 40 µM": 0},
      {"compound": "CCCCCCCCCCCCCCOc1ccc(S(=O)(=O)c2cnc3ccc([S+](C)[O-])cc3c2N2CCC(N3CCC(N4CCCCC4)CC3)CC2)cc1F", "note": "(centres unmarked) [compound 366, 4-([1,4′:1′,4″-terpiperidin]-1″-yl)-3-((3-fluoro-4-(tetradecyloxy)phenyl)sulfonyl)-6-(methylsulfinyl)quinoline]", "cytotoxicity at 20 µM": 10},
      {"compound": "COc1ccc(S(=O)(=O)c2cnc3cc(OC)c(OC)cc3c2N2CCC(c3ccc(CN4CCCC4)cc3)CC2)cc1", "note": "[compound 312, 6,7-dimethoxy-3-((4-methoxyphenyl)sulfonyl)-4-(4-(4-(pyrrolidin-1-ylmethyl)phenyl)piperidin-1-yl)quinoline]", "cytotoxicity at 40 µM": 100},
      {"compound": "COc1ccc(S(=O)(=O)c2cnc3cc(OC)c(OC)cc3c2N2CCC(O)(c3ccccc3)CC2)cc1", "note": "[compound 308, 1-(6,7-dimethoxy-3-((4-methoxyphenyl)sulfonyl)quinolin-4-yl)-4-phenylpiperidin-4-ol]", "cytotoxicity at 40 µM": 20},
      {"compound": "CCCCOc1ccc(S(=O)(=O)c2cnc3ccc(SC)cc3c2N2CCC(N3CCOCC3)CC2)cc1", "note": "[compound 229, 4-(1-(3-((4-butoxyphenyl)sulfonyl)-6-(methylthio)quinolin-4-yl)piperidin-4-yl)morpholine]", "cytotoxicity at 40 µM": 30},
      {"compound": "CCc1ccc(S(=O)(=O)c2cnc3ccc(OC(F)(F)F)cc3c2NCCCCCO)cc1", "note": "[compound 104, 5-((3-((4-ethylphenyl)sulfonyl)-6-(trifluoromethoxy)quinolin-4-yl)amino)pentan-1-ol]", "cytotoxicity at 20 µM": 20},
      {"compound": "COc1ccc(S(=O)(=O)c2cnc3ccc([N+](=O)[O-])cc3c2N2CCC(N3CCCCC3)CC2)cc1", "note": "[compound 114, 4-([1,4′-bipiperidin]-1′-yl)-3-((4-methoxyphenyl)sulfonyl)-6-nitroquinoline]", "cytotoxicity at 20 µM": 5},
      {"compound": "CCCCOc1ccc(S(=O)(=O)c2cnc3ccc([S+](C)[O-])cc3c2N2CCC(N3CCCCC3)CC2)cc1", "note": "(centres unmarked) [compound 167, 4-([1,4′-bipiperidin]-1′-yl)-3-((4-butoxyphenyl)sulfonyl)-6-(methylsulfinyl)quinoline]", "cytotoxicity at 20 µM": 40},
      {"compound": "CCCCCCCCCCCCOc1ccc(S(=O)(=O)c2cnc3ccc([S+](C)[O-])cc3c2N2CCC(N3CCC(N4CCC(O)CC4)CC3)CC2)cc1F", "note": "(centres unmarked) [compound 372, 1″-(3-((4-(dodecyloxy)-3-fluorophenyl)sulfonyl)-6-(methylsulfinyl)quinolin-4-yl)-[1,4′:1′,4″- terpiperidin]-4-ol]", "cytotoxicity at 20 µM": 20}
    ]}
  ]
}
